The text below walks through data of US20060189591A1, “Five-membered heterocyclic derivative” (DAIICHI PHARMACEUTICAL CO., LTD., priority 2003, published 2006).

As usually defined, the inhibition is the drop in the measured response relative to a control, in per cent. In general, pIC50 refers to −log10 of the IC50, conventionally taken in molar units.

The target in experiment [1] is T1, Cyclooxygenase-2 (COX-2) (Homo sapiens, UniProt P35354).
T1 construct: purchased Cayman Chemical Company 560121
T1 sequence (P35354 18-604): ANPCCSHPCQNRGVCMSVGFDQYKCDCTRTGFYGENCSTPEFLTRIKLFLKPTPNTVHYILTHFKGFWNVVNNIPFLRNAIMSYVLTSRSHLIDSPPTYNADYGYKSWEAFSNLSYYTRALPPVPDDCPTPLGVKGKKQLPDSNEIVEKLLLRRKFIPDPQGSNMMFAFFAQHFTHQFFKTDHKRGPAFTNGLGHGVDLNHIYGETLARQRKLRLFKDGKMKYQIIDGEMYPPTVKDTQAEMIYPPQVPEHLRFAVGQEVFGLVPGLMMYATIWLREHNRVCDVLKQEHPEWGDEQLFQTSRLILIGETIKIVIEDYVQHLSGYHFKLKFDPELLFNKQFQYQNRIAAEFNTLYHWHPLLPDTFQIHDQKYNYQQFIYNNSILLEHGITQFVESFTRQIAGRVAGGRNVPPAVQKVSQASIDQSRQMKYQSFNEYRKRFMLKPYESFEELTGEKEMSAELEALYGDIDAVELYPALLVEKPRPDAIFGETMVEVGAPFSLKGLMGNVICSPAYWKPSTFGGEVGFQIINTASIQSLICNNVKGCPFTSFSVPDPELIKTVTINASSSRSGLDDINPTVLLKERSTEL
Kind of experiment: COX Inhibitor Screening Assay Kit, COX-2. Type of experiment: biochemical. Conditions: 50 μM compound; read-out: Inhibitory effect against COX-2 at 50 μM (% inhibition). Here is the method: (§1) Inhibitory Effects on Cyclooxygenase-1 (COX-1) and Cyclooxygenase-2 (COX-2)
(§2) Inhibitory activity against COX-1 and COX-2 of the compounds produced in the Examples was measured by use of a COX Inhibitor Screening Assay Kit (product of Cayman Chemical Company, Catalog Nos. 560101 and 560121).
(§3) Before starting the measurement, reaction buffer, heme, arachidonic acid, SnCl2, EIA buffer, washing buffer, prostaglandin (PG) screening EIA standard, PG screening acetylcholine esterase (AchE), tracer (chromogenic enzyme […] conjugate), and PG screening EIA antiserum were prepared ready for use.
(§4) (1) Production of PGF2α in the presence of COX-1 or COX-2
(§5) A reaction mixture containing the compound of the Examples (50 μM) and COX-1 or COX-2 was allowed to stand at 37° C. for 10 minutes. Arachidonic acid ([…]) was added thereto, and the resultant mixture was further allowed to stand at 37° C. for 2 minutes. 1N-Hydrochloric acid (50 μL) was added to the reaction mixture, to thereby stop the reaction. SnCl2 solution (100 μL) was added thereto, and the resultant mixture was allowed to stand at room temperature for 5 minutes.
(§6) (2) Quantitative Determination of PGF2α using ELISA
(§7) Antiserum (rabbit anti-PGF2α antibody, 50 μL) was added to the wells of 96 well plate that had been coated with mouse anti-rabbit IgG. A solution of PGF2α-containing mixture obtained above (2000-fold diluted, 50 μL) and AchE tracer (50 μL) were added to the well in this order, and the mixture was allowed to stand at room temperature for 18 hours. The wells were washed 5 times with the washing buffer to remove an excessive AchE tracer, and Ellman reagent (200 μL) was added. After leaving the plate in a dark room for 60 minutes, absorbance was measured at 405 nm.
(§8) (3) Calculation of Inhibitory Activity of the Compound of the Examples
(§9) A calibration curve was obtained by use of the PG screening EIA standard, and the production amount of PGF2α was determined from the absorbance above. Percent inhibition against COX-1 or COX-2 at 50 μM of the compound of the Examples was calculated.

Experiment [2] has as its system collagen-induced platelet aggregation. Put plainly: Inhibitory activity for platelet aggregation (collagen-induced, human platelet rich plasma). It is filed as cell-based. The settings on record: human PRP, read-out: Inhibition of collagen-induced platelet aggregation, IC50. On the procedure: Inhibitory Activity for Platelet Aggregation
Human blood was collected in the presence of 3.13% sodium citrate as an anticoagulant in a volume 1/10 the blood volume. The collected blood was centrifuged at 180×g for 10 minutes so as to separate the upper layer; i.e., platelet rich plasma (PRP) from the blood. The remaining lower layer was further centrifuged at 1,600×g for 10 minutes, and platelet poor plasma ([…]); i.e., the thus-obtained upper layer, was collected. A solution (1 μL) of the compound of the Examples was added to PRP (200 μL), and the mixture was allowed to stand at 37° C. for 2 minutes. Subsequently, collagen (2 μL) was added to the resultant mixture so as to induce platelet aggregation. Percentage of platelet aggregation was measured using PAM-12C (SSR Engineering). Optical transmittance of PPP was employed as the value reflecting the state in which 100% aggregation occurred. Percent of platelet aggregation values of PRP were determined at a series of concentrations of each Example compound and IC50 of each compound was calculated.

The target of experiment [3] is T2, Cyclooxygenase-1 (COX-1) (Ovis aries, UniProt P05979).
T2 construct: purchased Cayman Chemical Company 560101
T2 sequence (P05979 25-600): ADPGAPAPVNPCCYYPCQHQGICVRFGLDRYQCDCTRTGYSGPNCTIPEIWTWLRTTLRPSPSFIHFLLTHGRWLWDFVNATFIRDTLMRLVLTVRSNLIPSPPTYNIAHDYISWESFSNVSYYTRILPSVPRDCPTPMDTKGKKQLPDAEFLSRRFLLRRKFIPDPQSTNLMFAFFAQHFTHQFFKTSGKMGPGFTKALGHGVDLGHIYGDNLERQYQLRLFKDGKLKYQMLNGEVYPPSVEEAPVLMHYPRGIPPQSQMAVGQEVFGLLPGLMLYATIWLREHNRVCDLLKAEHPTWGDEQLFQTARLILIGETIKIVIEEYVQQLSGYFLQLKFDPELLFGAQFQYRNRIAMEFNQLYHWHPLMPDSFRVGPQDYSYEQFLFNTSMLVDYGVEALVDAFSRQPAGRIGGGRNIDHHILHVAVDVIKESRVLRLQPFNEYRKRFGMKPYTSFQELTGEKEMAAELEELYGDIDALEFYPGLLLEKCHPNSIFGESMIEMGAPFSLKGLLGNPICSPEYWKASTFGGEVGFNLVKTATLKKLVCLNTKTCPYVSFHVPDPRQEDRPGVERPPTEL
Kind of experiment: COX Inhibitor Screening Assay Kit, COX-1. Type of experiment: biochemical. The settings on record: 50 μM compound; read-out: Inhibitory effect against COX-1 at 50 μM (% inhibition). On the procedure: as §1, §2, §3, §4, §5, §6, §7, §8, §9

For experiment [4], the system named is COX. The settings on record: background art; cited from earlier work.
For experiment [5], the system named is collagen-induced platelet aggregation. The settings on record: cited from earlier work.

pIC50: −log10 of the molar value. Where a name gives a salt, the structure may show the parent alone. Read-outs that look alike come from different tables or passages of the source.

Regarding `COc1ccc(-c2nc(C(=O)N3CCC(F)(F)CC3)cn2-c2ccccn2)cn1` [Example 63, 1-[2-(6-Methoxy-3-pyridyl)-1-(2-pyridyl)-1H-imidazole-4-carbonyl]-4,4-difluoropiperidine], the inhibition at 50 µM in experiment [1] was 7.5%; in experiment [3] it was 3.4%. Further, the pIC50 in experiment [2] was 7.70.
Consider `COc1ccc(-c2nc(C(=O)N3CCN(C)CC3)sc2-c2ccc(OC)cc2)cc1` [thiazole derivative (C)], for which, in experiment [4], the COX inhibiting effect entry is recorded as “inhibits COX”.
For `COc1ccc(-n2nc(C(=O)N3CCC(F)(F)CC3)nc2-c2ccc(C#N)cn2)cn1` [Example 67, 1-[5-(5-Cyano-2-pyridyl)-1-(6-methoxy-3-pyridyl)-1H-1,2,4-triazole-3-carbonyl]-4,4-difluoropiperidine], the pIC50 in experiment [2] is 6.66.
Turning to `COc1ccc(-n2nc(C(=O)N3CCC(F)(F)CC3)nc2-c2ccc(C)cn2)cn1` [Example 74, 1-[1-(6-Methoxy-3-pyridyl)-5-(5-methyl-2-pyridyl)-1H-1,2,4-triazole-3-carbonyl]-4,4-difluoropiperidine], the pIC50 in experiment [2] is 7.68. Further, the inhibition at 50 µM in experiment [3] turned out to be 46.9%.
For the molecule `Cc1ccc(-n2cc(C(=O)N3CCN(C)C(=O)C3)nc2-c2ccc(C)nc2)cc1` [Example 32, 1-[1-(4-Methylphenyl)-2-(6-methyl-3-pyridyl)-1H-imidazole-4-carbonyl]-4-methyl-3-oxopiperazine], the inhibition at 50 µM in experiment [1] was -2.2%; in experiment [3], 5.6%. Further, in experiment [2], the negative logarithm of the IC50 (pIC50) was 6.39.
As for `COc1ccc(-n2nc(C(=O)N3CCN(C)CC3)nc2-c2ccccn2)cn1` [Example 66, 1-[1-(6-Methoxy-3-pyridyl)-5-(2-pyridyl)-1H-1,2,4-triazole-3-carbonyl]-4-methylpiperazine], the pIC50 in experiment [2] is 6.15.
For the molecule `COc1ccc(-c2nc(C(=O)N3CCC(F)CC3)cn2-c2ccccn2)cn1` [Example 64, 1-[2-(6-Methoxy-3-pyridyl)-1-(2-pyridyl)-1H-imidazole-4-carbonyl]-4-fluoropiperidine], the inhibition at 50 µM was 4.5% in experiment [1] and -1.4% in experiment [3]. In experiment [2], the pIC50 was 7.22.
On to `COc1ccc(-n2nc(C(=O)N3CCN(C)CC3)nc2-c2ccc(C)cc2)cn1` [Example 37, 1-[1-(6-Methoxy-3-pyridyl)-5-(4-methylphenyl)-1H-1,2,4-triazole-3-carbonyl]-4-methylpiperazine hydrochloride], for which the inhibition at 50 µM in experiment [1] was -0.8%; in experiment [3], -3.2%. For the same molecule, in experiment [2], the pIC50 is 6.57.
For the molecule `COc1ccc(-c2cc(C(F)F)nn2-c2ccc(S(N)(=O)=O)cc2)cc1F` [compound (B)], the “platelet aggregation inhibitory activity” value in experiment [5] (compared with inhibitory activity against COX-2) is reported as “not so strong compared with its inhibitory activity against COX-2”.
On to `COc1ccc(-c2nc(C(=O)N3CCN(C)CC3)nn2-c2ccc(C)cc2)cn1` [Example 38, 1-[5-(6-Methoxy-3-pyridyl)-1-(4-methylphenyl)-1H-1,2,4-triazole-3-carbonyl]-4-methylpiperazine hydrochloride], for which the inhibition at 50 µM in experiment [1] came out at 10.7%; in experiment [3], 3.5%. In addition, the negative-log IC50 (pIC50) in experiment [2] is 6.49.
As for `COc1ccc(-c2nc(C(=O)N3CCN(C)CC3)cn2-c2ccc(F)cc2)cn1` [Example 6, 1-[1-(4-Fluorophenyl)-2-(6-methoxy-3-pyridyl)-1H-imidazole-4-carbonyl]-4-methylpiperazine], the values for the inhibition at 50 µM in experiment [1] and in experiment [3] were 23.4% and 28.4%, respectively. Also, the pIC50 in experiment [2] was 6.48.
Take `CS(=O)(=O)c1ccc(-c2cc(C#N)nn2-c2ccc(F)cc2)cc1` [Compound (A)]: the pIC50 in experiment [5] (prior-art compound, background art, read-out: IC50 value against collagen-induced platelet aggregation) was 5.28.
With `COc1ccc(-c2nc(C(=O)N3CCC[C@@H](F)C3)cn2-c2ccccn2)cn1` [Example 72, (3R)-1-[2-(6-Methoxy-3-pyridyl)-1-(2-pyridyl)-1H-imidazole-4-carbonyl]-3-fluoropiperidine], the pIC50 in experiment [2] is 6.96. The inhibition at 50 µM in experiment [3] came to 39%.
Turning to `COc1ccc(-c2nc(C(=O)N3CCC(OC)CC3)cn2-c2ccccn2)cn1` [Example 65, 1-[2-(6-Methoxy-3-pyridyl)-1-(2-pyridyl)-1H-imidazole-4-carbonyl]-4-methoxypiperidine], the pIC50 in experiment [2] is 6.92.
As for `CN1CCN(C(=O)c2nc(-c3ccccc3)c(-c3ccccc3)o2)CC1` [Example 25, 1-(4,5-diphenyloxazole-2-carbonyl)-4-methylpiperazine], the inhibition at 50 µM in experiment [1] is -8.7%; in experiment [3] it was 3.1%. Also, the pIC50 in experiment [2] was 6.15.
For `COc1ccc(-n2nc(C(=O)N3CCC(F)(F)CC3)nc2-c2ccc(F)cn2)cn1` [Example 71, 1-[5-(5-Fluoro-2-pyridyl)-1-(6-methoxy-3-pyridyl)-1H-1,2,4-triazole-3-carbonyl]-4,4-difluoropiperidine], the pIC50 in experiment [2] was 6.72. The inhibition at 50 µM in experiment [3] came to 35.2%.
